Reference: BindingDB's records for doi:10.1021/jm9805384 (Agouron Pharmaceuticals, 1999)

Columns and labels:
[1] = Increased percentage of formazan production in drug treated virus infected cells to equal 50% control drug free uninfected cells on serotype 14
[2] = The EC50 was calculated as the concentration of drug that increased the percentage of formazan production in drug treated, virus infected cells to 50% of that produced by drug free uninfected cells on serotype 2.

Structure (SMILES) | EC50 [1] [nM] | EC50 [2] [nM]
CCOC(=O)/C=C/[C@H](CN1CCNC1=O)NC(=O)[C@H](Cc1ccccc1)NC(=O)[C@H](CC(C)C)NC(=O)OCc1ccccc1 [(E)-(R)-4-[(S)-2-((S)-2-Benzyloxycarbonylamino-4-methyl-pentanoylamino)-3-phenyl-propionylamino]-5-(2-oxo-imidazolidin-1-yl)-pent-2-enoic acid ethyl ester] | 600 | –
CCOC(=O)/C=C/[C@H](C[C@@H]1CCCNC1=O)NC(=O)[C@H](Cc1ccccc1)NC(=O)[C@H](CC(C)C)NC(=O)OCc1ccccc1 [(E)-(S)-4-[(S)-2-((S)-2-Benzyloxycarbonylamino-4-methyl-pentanoylamino)-3-phenyl-propionylamino]-5-((S)-2-oxo-piperidin-3-yl)-pent-2-enoic acid ethyl ester] | 30 | –
CCOC(=O)/C=C/[C@H](CCC(N)=O)NC(=O)[C@H](Cc1ccccc1)NC(=O)[C@H](CC(C)C)NC(=O)OCc1ccccc1 [(E)-(S)-4-[(S)-2-((S)-2-Benzyloxycarbonylamino-4-methyl-pentanoylamino)-3-phenyl-propionylamino]-6-carbamoyl-hex-2-enoic acid ethyl ester] | – | 1600
CCOC(=O)/C=C/[C@H](CCC(=O)N(C)C)NC(=O)[C@H](Cc1ccccc1)NC(=O)[C@H](CC(C)C)NC(=O)OCc1ccccc1 [(E)-(S)-4-[(S)-2-((S)-2-Benzyloxycarbonylamino-4-methyl-pentanoylamino)-3-phenyl-propionylamino]-6-dimethylcarbamoyl-hex-2-enoic acid ethyl ester] | 4000 | –
CCOC(=O)/C=C/[C@H](CCC(=O)NC)NC(=O)[C@H](Cc1ccccc1)NC(=O)[C@H](CC(C)C)NC(=O)OCc1ccccc1 [(E)-(S)-4-[(S)-2-((S)-2-Benzyloxycarbonylamino-4-methyl-pentanoylamino)-3-phenyl-propionylamino]-6-methylcarbamoyl-hex-2-enoic acid ethyl ester] | 5600 | –
CCOC(=O)/C=C/[C@H](C[C@@H]1CCNC1=O)NC(=O)[C@H](Cc1ccccc1)NC(=O)[C@@H](NC(=O)OCc1ccccc1)C(C)C [ethyl (2E,4S)-4-[(2S)-2-[(2S)-2-{[(benzyloxy)carbonyl]amino}-3-methylbutanamido]-3-phenylpropanamido]-5-[(3S)-2-oxopyrrolidin-3-yl]pent-2-enoate] | 30 | –

Continued by falling EC50 [1], values first:

EC50 [1] [nM] | EC50 [2] [nM] | Structure (SMILES)
20 | – | CCOC(=O)/C=C/[C@H](C[C@@H]1CCCNC1=O)NC(=O)[C@H](Cc1ccc(F)cc1)NC(=O)[C@@H](NC(=O)c1cc(C)on1)C(C)C [(E)-(S)-4-((S)-3-(4-Fluoro-phenyl)-2-{(S)-3-methyl-2-[(5-methyl-isoxazole-3-carbonyl)-amino]-butyrylamino}-propionylamino)-5-((S)-2-oxo-piperidin-3-yl)-pent-2-enoic acid ethyl ester]
10 | – | CCOC(=O)/C=C/[C@H](C[C@@H]1CCNC1=O)NC(=O)[C@H](Cc1ccc(F)cc1)NC(=O)[C@@H](NC(=O)c1cc(C)on1)C(C)(C)C [(E)-(S)-4-[(S)-2-{(S)-3,3-Dimethyl-2-[(5-methyl-isoxazole-3-carbonyl)-amino]-butyrylamino}-3-(4-fluoro-phenyl)-propionylamino]-5-((S)-2-oxo-pyrrolidin-3-yl)-pent-2-enoic acid ethyl ester]
10 | – | CCOC(=O)/C=C/[C@H](C[C@@H]1CCNC1=O)NC(=O)[C@H](Cc1ccc(F)cc1)NC(=O)[C@@H](NC(=O)c1cc(C)on1)C(C)C [AG7088 analogue 2a]
1 | – | CCOC(=O)/C=C/[C@H](C[C@@H]1CCCNC1=O)NC(=O)[C@@H](CC(=O)[C@@H](NC(=O)c1cc(C)on1)C(C)C)Cc1ccc(F)cc1 [(E)-(S)-4-{(2R,5S)-2-(4-Fluoro-benzyl)-6-methyl-5-[(5-methyl-isoxazole-3-carbonyl)-amino]-4-oxo-heptanoylamino}-5-((S)-2-oxo-piperidin-3-yl)-pent-2-enoic acid ethyl ester]
